The source of these data is US20140155324A1, “NOVEL PEPTIDES AND USES THEREOF IN THERAPEUTIC METHODS” (TWO TO BIOTECH LTD., priority 2011, published 2014).

Format in all cases: in vivo, C57Bl/6 male mice
The subject of test [1] is GLUT-4. The test is described as follows: GLUT-4 RNA level in splenocytes of treated mice. The following applies: mice, 0.25, 1.5 or 15 mg/Kg 3 times a week for 2 weeks; HPRT control; maximal induction at 1.5 mg/Kg; FIG. 3C. As for the experimental part: (§1) Mice were sacrificed and dissected. 15-20 mg of appropriate tissue was taken and stabilized in RNA-Save. RNA was extracted from the tissue using an RNeasy mini kit. Homogenization was performed using a 22G needle and syringe. cDNA was prepared from the RNA using EZ-first strand cDNA synthesis kit for RT-PCR. PCR of samples was performed using GoTaq Green Master Mix using appropriate primers (40 cycles, annealing temperature: 62° C.).
(§2) Male C57131/6 mice were divided into four groups of 5 mice each. The control group (Group I) received 5% Mannitol IV (200 μL 3 times a week). Group II received a dose of APC2 (0.25 mg/Kg body weight) 3 times a week. Group III received a dose of APC2 (1.5 mg/Kg body weight) 3 times a week. Group IV received a dose of APC2 (15 mg/Kg body weight) 3 times a week. The mice were treated for 2 weeks.
(§3) At the end of the experiment, the mice were sacrificed, the splenocytes were collected from the different mice groups and the RNA levels of HPRT (control), insulin receptor and GLUT4 were assayed.

Test [2] in a line: Plasma glucagon assay. The conditions noted are these: mice, 0.25, 1.5 or 15 mg/Kg 3 times a week for 2 weeks; FIG. 2. The method, then:
(§4) Twenty 7-weeks old C57Bl/6 male mice (per experiment) were purchased from Harlan Biotech (Jerusalem, Israel). All mice were maintained in the animal facility room at the company facility. The mice were given standard laboratory chow and water ad libitum and kept in a 12-hour light/dark cycle. All animal experiments were carried out in accordance with the guidelines of the Israeli authority for animal experiments for Care and Use of Laboratory Animals and with the authority specific approval.
Mice tail vein was punctured and blood glucose was assayed using a standard glucometer.
as §2
In addition to GTT, the mice plasma glucagon levels were assayed as described in the Methods section.

The nature of test [3]: Glucose tolerance test (GTT) after 2 weeks of treatment. The conditions noted are these: mice, 0.25, 1.5 or 15 mg/Kg 3 times a week for 2 weeks; glucose 2 g/Kg i.p., 0-120 min; optimal response at 1.5 mg/Kg; FIG. 1. The method, then: Twenty 7-weeks old C57Bl/6 male mice (per experiment) were purchased from Harlan Biotech (Jerusalem, Israel). All mice were maintained in the animal facility room at the company facility. The mice were given standard laboratory chow and water ad libitum and kept in a 12-hour light/dark cycle. All animal experiments were carried out in accordance with the guidelines of the Israeli authority for animal experiments for Care and Use of Laboratory Animals and with the authority specific approval. At the end of experiment (two weeks) a glucose tolerance test (GTT) was performed. The mice were starved overnight prior to administration of the test. Glucose was injected intraperitoneally (i.p.) (2 g/Kg body weight) and blood glucose levels were measured at time-points 0 min, 15 min, 30 min, 60 min, 90 min and 120 min. Blood glucose was determined by sampling tail vein blood using a standard glucometer. Male C57131/6 mice were divided into four groups of 5 mice each. The control group (Group I) received 5% Mannitol IV (200 μL 3 times a week). Group II received a dose of APC2 (0.25 mg/Kg body weight) 3 times a week. Group III received a dose of APC2 (1.5 mg/Kg body weight) 3 times a week. Group IV received a dose of APC2 (15 mg/Kg body weight) 3 times a week. The mice were treated for 2 weeks. […]

For test [4], the system named is insulin receptor. The test is described as follows: Insulin receptor RNA level in splenocytes of treated mice. The following applies: mice, 0.25, 1.5 or 15 mg/Kg 3 times a week for 2 weeks; HPRT control; maximal induction at 1.5 mg/Kg; FIG. 3B. The method, then:
as §1, §2, §3

The test system of test [5] is TNFα. The test is described as follows: Serum TNFα assay (Bio-Plex). The following applies: mice, 0.25, 1.5 or 15 mg/Kg 3 times a week for 2 weeks; optimal response at 1.5 mg/Kg; FIG. 4A. The method, then:
as §4
(§5) Blood was drawn from each mouse and collected separately in a 1.5 ml vial. After 30 min to 1 hr at room temperature, the clotted blood was centrifuged at 300G for 15 minutes at 4° C. The supernatant was collected to a new 1.5 ml vial and centrifuged again at 300G for 15 minutes. The supernatant was collected to a new 1.5 ml vial and frozen at −70° C. for later analysis. When ready for analysis, the blood vials were quickly thawed in a water bath at room temperature, and then centrifuged at 13,000 G for 10 minutes at 4° C. Samples were analyzed according to the Bio-Plex Pro assay instruction manual using a flat bottom black plate.
(§6) Male CS7Bl/6 mice were divided into four groups of 5 mice each. […]
(§7) At the end of the experiment, TNFα and IL-1β were measured in the mice plasma, and the results are presented in FIGS. 4A and 4B, respectively.

Test [6] has as its system IL-1β. The test is described as follows: Serum IL-1β assay (Bio-Plex). The conditions noted are these: mice, 0.25, 1.5 or 15 mg/Kg 3 times a week for 2 weeks; optimal response at 1.5 mg/Kg; FIG. 4B. The method, then:
as §4, §5, §6, §7

As to “APC-2: isolated polypeptide of SEQ ID NO. 1, hormone-like protein expressed in human heart and lymphocytes (MITSWFSLLPGSQEATATPPFPVVAGRKH; Homo sapiens APC2)”, the “GLUT4 RNA levels in splenocytes” value in test [1] was “up-regulated”. Moreover, the plasma glucagon levels entry in test [2] was “reduced in a dose-dependent manner”. Moreover, the “glucose tolerance (blood glucose levels after i.p. glucose)” value in test [3] is given as “improved glucose tolerance in a dose-dependent manner”. Moreover, in test [4], the “insulin receptor RNA levels in splenocytes” value is listed as “up-regulated”.
Turning to “APC-3: isolated polypeptide of SEQ ID NO. 5, hormone-like protein expressed in human spleen, testis, small intestine, colon and kidney (MSSFCLALEVFHPTVSSGRSRPYQIASLETPVLNYSFHHRR; Homo sapiens APC3)”, in test [5], the TNFα levels result is “reduced both inflammatory cytokines levels in a dose-dependent manner”. Moreover, in test [6], the IL-1β levels result was “reduced both inflammatory cytokines levels in a dose-dependent manner”.
